From patent US7514245B2, “Method for producing chiral α-hydroxycarboxylic acids by enzymatic hydrolysis of chiral cyanohydrins” (DSM Fine Chemicals Austria NFG GmbH & Co. KG, priority 2003, dated 2009)

Columns and labels:
[1] = target: T1, nitrile hydratase of Rhodococcus erythropolis NCIMB 11540 (Rhodococcus erythropolis, UniProt P13448+P13449); assay: Hydrolysis using the recombinant enzyme (crude lysate of E. coli clone 7.3); format: biochemical; settings: substrate approximately 10 mM, 5% DMSO, 30° C., pH 7; for Activity of the nitrile hydratase: relative to 2-hydroxy-4-phenylbutyronitrile (100%)
T1 construct: made in house; host or cells: E. coli B BL21 (plasmid pMS470Nhase7.3 or pMSNhasetactac7.3), crude lysate
T1 sequence (P13448 1-207): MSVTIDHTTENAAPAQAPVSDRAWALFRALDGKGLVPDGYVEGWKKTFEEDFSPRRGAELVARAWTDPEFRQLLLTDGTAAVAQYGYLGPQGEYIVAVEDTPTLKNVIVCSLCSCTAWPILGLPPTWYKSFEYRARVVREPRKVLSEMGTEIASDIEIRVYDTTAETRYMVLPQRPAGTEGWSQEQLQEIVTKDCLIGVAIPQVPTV
T1 sequence (P13449 1-212): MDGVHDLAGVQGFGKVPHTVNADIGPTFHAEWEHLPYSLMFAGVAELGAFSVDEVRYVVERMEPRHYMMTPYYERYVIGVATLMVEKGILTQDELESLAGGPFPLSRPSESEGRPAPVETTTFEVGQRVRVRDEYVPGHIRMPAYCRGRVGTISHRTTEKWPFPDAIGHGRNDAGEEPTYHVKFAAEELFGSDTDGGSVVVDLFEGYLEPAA
Method: In these reactions, cloned nitrile hydratase of Rhodococcus erythropolis NCIMB 11540 was used as crude lysate of E. coli clone 7.3 (produced according to Example 9).
50 μl of crude lysate were diluted with 425 μl of buffer (K/Na—PO4 buffer, pH 7, 50 mM) and admixed with 25 μl of an approximately 220 mM substrate solution in DMSO (5 mg of protein/ml substrate concentration approximately 10 mM, 5% DMSO). The reaction was carried out in the Thermomixer at 30° C. and 1000 rpm. After 0, 2, 4, 6, 8, 10, 15, 20, 30, 60 and 120 minutes, in each case one Eppendorf was admixed with 0.5 ml of 1N HCl. After centrifugation (5 min, 13 000 rpm) and corresponding dilution, the concentrations of cyanohydrin and hydroxyamide were determined by HPLC. The activity of the nitrile hydratase was determined from the velocity of formation of hydroxyamide (gradient in the initial range). The standard substrate (100% activity) used was 2-hydroxy-4-phenylbutyronitile. The activity in the hydrolysis of the other substrates was compared with the activity on 2-hydroxy-4-phenylbutyronitrile (Tab. 5).

[2] = tested on: Rhodococcus erythropolis NCIMB 11540 cells; assay: Enzymatic hydrolysis at different substrate concentrations, Experiment 4.1; format: cell-based; settings: 5% DMSO, 30° C.
Method: In experiment 4.1, the reaction was carried out on an analytical scale (reaction volume 1 ml) using 3 substrate concentrations (2.2 g/l, 6.6 g/l, 13.2 g/l).
The biocatalyst was produced according to Example 1, Variant II, 2 l of fermentation medium, harvest after 20 hours (OD546 6.1). The cells from 8 times 10 ml of fermentation solution were centrifuged off in culture tubes. The resultant cell mass was washed once in each case with 2 ml K/Na-phosphate buffer (pH 6.5, 50 mM). The contents of 2 tubes were lyophilized for determining the dry weight. • Weight: 1. 37 mg of lyophilized cells/10 ml fermentation solution • 2. 30 mg
The contents of the remaining 6 tubes were resuspended in 950 μl of buffer (OD approximately 40) and transferred to Eppendorfs. To each of these cell suspensions were added 50 μl of variously concentrated substrate solutions (3 concentrations, parallel batches, 5% DMSO as cosolvent). The Eppendorfs were shaken on the Thermomixer at 30° C. and 1000 rpm. For monitoring the conversion rate, in each case 200 μl were withdrawn and admixed with 200 μl of 1N HCl. After centrifugation (5 min, 13 000 rpm) and dilution, the conversion rates were determined by HPLC.
Following concentrations of (R)-2-chloromandelonitrile were used: • a. Substrate solution: 11 mg of (R)-2-chloromandelonitrile in 250 μl of DMSO (approximately 260 mM) • Substrate concentration in the batch: 2.2 g/l (13.1 mM) • b. Substrate solution: 33 mg of (R)-2-chloromandelonitrile in 250 μl of DMSO (approximately […]) • Substrate concentration in the batch: substrate concentration: 6.6 g/l (39.4 mM) • c. Substrate solution: 66 mg of (R)-2-chloromandelonitrile in 250 μl of DMSO (approximately 1580 mM) • Substrate concentration in the batch: 13.2 g/l (78.8 mM)

SMILES: N#CC(O)c1ccccc1Cl (stereo not shown)
- Activity of the nitrile hydratase [1]: 100%

SMILES: Cc1ccc(C(O)C#N)cc1 (stereo not shown)
- Activity of the nitrile hydratase [1]: 60%

SMILES: N#CC(O)CCc1ccccc1 (stereo not shown) [2-hydroxy-4-phenylbutyronitrile]
- activity of the nitrile hydratase in the crude lysate ([1]; E. coli clone 7.3): approximately 0.3 μmol·mg^−1·min^−1

SMILES: O=C(O)[C@H](O)c1ccccc1Cl [(R)-2-chloromandelic acid]
- formation of (R)-2-chloromandelic acid ([2]; batch a: 2.2 g/l (13.1 mM) (R)-2-chloromandelonitrile, 10 min): 77%
- formation of (R)-2-chloromandelic acid ([2]; batch a: 2.2 g/l (13.1 mM), 20 min): 86%
- formation of (R)-2-chloromandelic acid ([2]; batch a: 2.2 g/l (13.1 mM), 30 min): 92%
- formation of (R)-2-chloromandelic acid ([2]; batch a: 2.2 g/l (13.1 mM), 40 min): 94%
- formation of (R)-2-chloromandelic acid ([2]; batch a: 2.2 g/l (13.1 mM), 50 min): 96%
- formation of (R)-2-chloromandelic acid ([2]; batch b: 6.6 g/l (39.4 mM), 10 min): 45%
- formation of (R)-2-chloromandelic acid ([2]; batch b: 6.6 g/l (39.4 mM), 20 min): 70%
- formation of (R)-2-chloromandelic acid ([2]; batch b: 6.6 g/l (39.4 mM), 30 min): 82%
- formation of (R)-2-chloromandelic acid ([2]; batch b: 6.6 g/l (39.4 mM), 40 min): 89%
- formation of (R)-2-chloromandelic acid ([2]; batch b: 6.6 g/l (39.4 mM), 50 min): 95%
- formation of (R)-2-chloromandelic acid ([2]; batch c: 13.2 g/l (78.8 mM), 10 min): 58%
- formation of (R)-2-chloromandelic acid ([2]; batch c: 13.2 g/l (78.8 mM), 20 min): 85%
- formation of (R)-2-chloromandelic acid ([2]; batch c: 13.2 g/l (78.8 mM), 30 min): 96%
- formation of (R)-2-chloromandelic acid ([2]; batch c: 13.2 g/l (78.8 mM), 40 min): 98%
- formation of (R)-2-chloromandelic acid ([2]; batch c: 13.2 g/l (78.8 mM), 50 min): 100%

SMILES: N#CC(O)CCc1ccccc1 (stereo not shown) [drawing 3]
- Activity of the nitrile hydratase [1]: 100%
